≈ marks a conversion by molar mass, not a printed value.
Columns and labels:
[1] = system: Mycoplasmoides gallisepticum; assay: Antimycoplasmal activity against Mycoplasma gallisepticum K514 with the extra addition of copper (40 uM); format: functional
[2] = system: Mycoplasmoides gallisepticum; assay: Antimycoplasmal activity against Mycoplasma gallisepticum K514 without the extra addition of copper; format: functional

MIC [1] | MIC [2] | Molecule
0.34 µM (≈ 0.128 µg/mL) | > 170 µM | CCCCCCCCCC(=O)Nc1nc(-c2ccccn2)cc2ccccc12
0.45 µM (≈ 0.125 µg/mL) | > 25 µM | CCC(=O)Nc1nc(-c2ccccn2)cc2ccccc12
0.39 µM (≈ 0.138 µg/mL) | > 100 µM | Cc1ccc(C(=O)Nc2nc(-c3ccccn3)cc3ccccc23)c(C)c1
1.9 µM (≈ 0.5 µg/mL) | > 25 µM | CC(=O)Nc1nc(-c2ccccn2)cc2ccccc12
0.1 µM (≈ 0.0916 µg/mL) | 0.1 µM (≈ 0.0916 µg/mL) | CC[C@H]1OC(=O)C[C@@H](O)[C@H](C)[C@@H](O[C@@H]2O[C@H](C)[C@@H](O[C@H]3C[C@@](C)(O)[C@@H](O)[C@H](C)O3)[C@H](N(C)C)[C@H]2O)[C@@H](CC=O)C[C@@H](C)C(=O)/C=C/C(C)=C/[C@@H]1CO[C@@H]1O[C@H](C)[C@@H](O)[C@@H](OC)[C@H]1OC [TYLOSIN]
0.19 µM (≈ 0.0645 µg/mL) | > 160 µM | Cc1ccc(C(=O)Nc2nc(-c3ccccn3)cc3ccccc23)cc1
0.21 µM (≈ 0.0641 µg/mL) | > 25 µM | CC(C)(C)C(=O)Nc1nc(-c2ccccn2)cc2ccccc12
0.36 µM (≈ 0.125 µg/mL) | > 170 µM | CCCCC(CC)C(=O)Nc1nc(-c2ccccn2)cc2ccccc12 (stereo not drawn)
0.39 µM (≈ 0.138 µg/mL) | > 100 µM | Cc1ccc(C)c(C(=O)Nc2nc(-c3ccccn3)cc3ccccc23)c1
0.22 µM (≈ 0.0641 µg/mL) | > 25 µM | CC(C)C(=O)Nc1nc(-c2ccccn2)cc2ccccc12
0.39 µM (≈ 0.138 µg/mL) | > 100 µM | Cc1ccc(C(=O)Nc2nc(-c3ccccn3)cc3ccccc23)cc1C
0.39 µM (≈ 0.138 µg/mL) | > 100 µM | Cc1cc(C)cc(C(=O)Nc2nc(-c3ccccn3)cc3ccccc23)c1
0.18 µM (≈ 0.064 µg/mL) | > 160 µM | COc1ccc(C(=O)Nc2nc(-c3ccccn3)cc3ccccc23)cc1
0.1 µM (≈ 0.0325 µg/mL) | 12.3 µM (≈ 4.01 µg/mL) | O=C(Nc1nc(-c2ccccn2)cc2ccccc12)c1ccccc1
0.35 µM (≈ 0.126 µg/mL) | > 160 µM | O=C(Nc1nc(-c2ccccn2)cc2ccccc12)c1ccc(Cl)cc1
0.45 µM (≈ 0.0996 µg/mL) | 452 µM (≈ 100 µg/mL) | Nc1nc(-c2ccccn2)cc2ccccc12
 | 400 µM | CUPRIC SULFATE
0.78 µM (≈ 0.276 µg/mL) | > 25 µM | Cc1cccc(C)c1C(=O)Nc1nc(-c2ccccn2)cc2ccccc12
0.64 µM (≈ 0.252 µg/mL) | > 160 µM | O=C(Nc1nc(-c2ccccn2)cc2ccccc12)c1ccc(Cl)c(Cl)c1
0.18 µM (≈ 0.064 µg/mL) | > 23 µM | COc1cccc(C(=O)Nc2nc(-c3ccccn3)cc3ccccc23)c1
0.09 µM (≈ 0.0305 µg/mL) | > 23 µM | Cc1cccc(C(=O)Nc2nc(-c3ccccn3)cc3ccccc23)c1
0.35 µM (≈ 0.126 µg/mL) | > 23 µM | O=C(Nc1nc(-c2ccccn2)cc2ccccc12)c1cccc(Cl)c1

From ChEMBL document CHEMBL1124073, “Synthesis and copper-dependent antimycoplasmal activity of 1-amino-3-(2-pyridyl)isoquinoline derivatives. 1. Amides” (1988)
